{
  "source": "patent US20080261897A1",
  "about": "“Formulation Containing a Polyphenol-Containing Composition and Isomaltulose” (priority 2005, published 2008)",
  "origin": "cited, not measured here",
  "data": [
    {"smiles": "O=C(CO)[C@@H](O)[C@H](O)[C@H](O)CO[C@H]1O[C@H](CO)[C@@H](O)[C@H](O)[C@H]1O", "note": "[isomaltulose, 6-O-α-D-glucopyranosylfructose]", "values": [
      {"measurement": "solubility of isomaltulose in water", "value": "0.49 g of anhydrous isomaltulose per g of water"}
    ]}
  ]
}
